The text below walks through data of US11932658B2 (BRISTOL-MYERS SQUIBB COMPANY, priority 2016, dated 2024).

For this assay, the target named is T1, PAR4 (Homo sapiens, UniProt Q96RI0).
T1 construct: expressed in transfected cells; host or cells: HEK293 PAR4 Clone 1.2A (BMS Arctic ID 383940)
T1 sequence (Q96RI0 18-385): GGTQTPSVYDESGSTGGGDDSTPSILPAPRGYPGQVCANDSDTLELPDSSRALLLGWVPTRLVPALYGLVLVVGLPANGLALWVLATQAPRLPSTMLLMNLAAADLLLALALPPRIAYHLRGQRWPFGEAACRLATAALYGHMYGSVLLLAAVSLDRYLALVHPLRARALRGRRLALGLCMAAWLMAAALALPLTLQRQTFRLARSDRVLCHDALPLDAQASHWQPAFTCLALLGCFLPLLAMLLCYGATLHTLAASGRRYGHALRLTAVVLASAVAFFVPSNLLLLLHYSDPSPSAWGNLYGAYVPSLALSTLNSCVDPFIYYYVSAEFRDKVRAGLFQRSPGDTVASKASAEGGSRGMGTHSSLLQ
Kind of assay: PAR4 FLIPR assay (antagonism of agonist peptide-induced calcium mobilization). It is filed as cell-based. The text has this:
The FLIPR assay is an exemplary in vitro assay for measuring the activity of the PAR4 antagonists of the present invention. In this assay, intracellular calcium mobilization is induced in PAR4 expressing cells by a PAR4 agonist and calcium mobilization is monitored.
HEK293 cells stably expressing PAR4 were generated by a standard method of transfection of human PAR4 (F2R23) cDNA expression vector and selected based on PAR4 protein expression or mRNA expression. […] These cells also express endogenous PAR1 and can elicit calcium signal upon stimulation with PAR1 agonist peptide. Therefore, the same cells were also used to determine selectivity against PAR1 and agonist activity for both receptors. Cells from HEK293 PAR4 Clone 1.2A (BMS Arctic ID 383940) were propagated and used for calcium mobilization studies.
FLIPR-based calcium mobilization assay in HEK293 cells was used to measure PAR4 antagonism, agonism, and selectivity against PAR1. The activity of the PAR4 antagonists of the present invention were tested in PAR4 expressing cells by monitoring H-Ala-Phe(4-F)-Pro-Gly-Trp-Leu-Val-Lys-Asn-Gy-NH2-induced intracellular calcium mobilization. Counter screens for agonist activity and PAR1 antagonist activity were also performed. Briefly, PAR1/PAR4-expressing HEK293 cells were grown in DMEM (Life Technology, Grand Island, NY) containing 10% heat-inactivated FBS, 1% Penicillin-Streptomycin, 10 μg/mL blasticidin, and 100 μg/mL Zeocin at 37° C. with 5% CO2. Cells were plated overnight prior to the experiment in a black 384-well Purecoat Amine clear bottom plate (Becton Dickinson Biosciences, San Jose, CA) at 10,000 cells/well in 30 μL growth medium and incubated in a humidified chamber at 37° C. with 5% CO2 overnight. Prior to compound addition, the cell medium was replaced with 40 μL of 1× calcium and magnesium-containing Hank's Balanced Saline Solution (HBSS) (with 20 mM HEPES) and 1:1000 diluted fluorescent calcium indicator (Codex Biosolutions, Gaithersburg, MD). After a 30 minute incubation period at 37° C. and a further 30 minute incubation and equilibration period at room temperature, 20 μL test compound (diluted in 1×HBSS buffer) was added at various concentrations at 0.17% dimethyl sulfoxide (DMSO) final concentration. Changes in fluorescence intensity were measured using a Functional Drug Screening System (FDSS, Hamamatsu, Japan) to determine agonist activities. The cells were then incubated for 30 minutes at room temperature followed by addition of 20 μL of agonist peptide for antagonist activity measurement. […] Compound potency was derived from 11-point concentration-response curves.
In general terms: Calcium assays in cells follow changes in intracellular calcium, usually with a dye or a luminescent sensor.
Consider `COc1cnc2c(-c3nc4ccc5c(c4s3)C[C@@H](C(C)O)O5)cc(C)cc2n1` (mixture of isomers) [Example 190], for which the IC50 came out at 24 nM.

On to `COc1cnc2c(-c3nc4cc(F)c5c(c4s3)[C@H](C)[C@H](CO)O5)cc(C)cc2n1` (relative stereo) [Example 199], for which the IC50 came out at 71 nM. The value for `COc1ccc(NC(=O)OC[C@@H]2COc3c(cc(Cl)c4nc(-c5cc(C)cc6nc(OC)cnc56)sc34)O2)cn1` (single isomer, unassigned) [Example 2] was 130 nM; that for `COc1ccc(NC(=O)OC[C@H]2COc3c(cc(C)c4nc(-c5cc(C)cc6nc(OC)cnc56)sc34)O2)cn1` (single isomer, unassigned) [Example 4] was 0.8 nM. Turning to `COc1cnc2c(-c3nc4c(C)cc5c(c4s3)OC[C@H](COC(=O)Nc3cccnc3)O5)cc(C)cc2n1` (single isomer, unassigned) [Example 5], the IC50 came out at 1.8 nM. On to `COc1cnc2c(-c3nc4c(Cl)cc5c(c4s3)C[C@H](COC(=O)Nc3ccc(C)nc3)O5)cc(C)cc2n1` (single isomer, unassigned) [Example 20], for which the IC50 was 3.2 nM. For the compound `COc1cnc2c(-c3nc4c(Cl)cc5c(c4s3)C[C@@H](COC(=O)Nc3ccc(C)nc3)O5)cc(C)cc2n1` (single isomer, unassigned) [Example 147], the IC50 amounted to 14 nM. For the compound `COc1cnc2c(-c3nc4ccc5c(c4s3)C[C@@](C)(CO)O5)cc(C)cc2n1` (single isomer, unassigned) [Example 187], the IC50 was found to be 1.7 nM.

As for `COc1cnc2c(-c3nc4ccc5c(c4s3)C[C@](C)(CO)O5)cc(C)cc2n1` (single isomer, unassigned) [Example 188], the IC50 stood at 130 nM. For the compound `COc1cnc2c(-c3nc4cc(F)c5c(c4s3)[C@@H](C)[C@H](CO)O5)cc(C)cc2n1` (single isomer, unassigned) [Example 201], the half-inhibitory concentration (IC50) worked out at 7.8 nM. For `COc1cnc2c(-c3nc4cc(F)c5c(c4s3)C(C)(C)[C@H](CO)O5)cc(C)cc2n1` (single isomer, unassigned) [Example 206], the IC50 worked out at 370 nM. On to `COc1cnc2c(-c3nc4ccc5c(c4s3)C[C@@H]([C@@H](C)O)O5)cc(C)cc2n1` (single isomer, unassigned) [Example 243], for which the half-maximal inhibitory concentration (IC50) stood at 9.7 nM.

On to `COc1cnc2c(-c3nc4c(C(O)C5(C(F)(F)F)CCC5)cc5c(c4s3)OCCO5)cc(C)cc2n1` (single isomer, unassigned) [Example 265, (2-(2-methoxy-7-methylquinoxalin-5-yl)-7,8-dihydro-[1,4]dioxino[2′,3′:3,4]benzo[1,2-d]thiazol-4-yl)(1-(trifluoromethyl)cyclobutyl)methanol], for which the IC50 is 1.9 nM.

With `COc1cnc2c(-c3nc4c(C(O)C(C)(C)C)cc5c(c4s3)OCCO5)cc(Cl)cc2c1` (single isomer, unassigned) [Example 274, 1-(2-(6-chloro-3-methoxyquinolin-8-yl)-7,8-dihydro-[1,4]dioxino[2′,3′:3,4]benzo[1,2-d]thiazol-4-yl)-2,2-dimethylpropan-1-ol], the IC50 was 5 nM. On to `COc1cnc2c(-c3nc4c(C(O)C(C)(C)C)cc5c(c4s3)OCCO5)cc(C)cc2n1` (single isomer, unassigned) [Example 277, 1-(2-(2-methoxy-7-methylquinoxalin-5-yl)-7,8-dihydro-[1,4]dioxino[2′,3′:3,4]benzo[1,2-d]thiazol-4-yl)-2,2-dimethylpropan-1-ol], for which the IC50 stood at 2.3 nM. Regarding `COc1ccc(NC(=O)OC[C@H]2COc3c(cc(Cl)c4nc(-c5cc(C)cc6nc(OC)cnc56)sc34)O2)cn1` [Example 1, (R)-(4-chloro-2-(2-methoxy-7-methylquinoxalin-5-yl)-7,8-dihydro-[1,4]dioxino[2′,3′:3,4]benzo[1,2-d]thiazol-7-yl)methyl (6-methoxypyridin-3-yl)carbamate], the IC50 worked out at 1.6 nM. With `COc1cnc2c(-c3nc4c(C)cc5c(c4s3)OCC(COC(=O)Nc3ccnc(O)c3)O5)cc(C)cc2n1` (stereo not drawn) [Example 3, (2-(2-methoxy-7-methylquinoxalin-5-yl)-4-methyl-7,8-dihydro-[1,4]dioxino[2′,3′:3,4]benzo[1,2-d]thiazol-7-yl)methyl (2-hydroxypyridin-4-yl)carbamate], the IC50 was 12 nM. Then `COc1cnc2c(-c3nc4c(C)cc5c(c4s3)OCC(COC(=O)Oc3cccnc3)O5)cc(C)cc2n1` (stereo not drawn) [Example 6, (2-(2-methoxy-7-methylquinoxalin-5-yl)-4-methyl-7,8-dihydro-[1,4]dioxino[2′,3′:3,4]benzo[1,2-d]thiazol-7-yl)methyl pyridin-3-yl carbonate], with 10 nM.

Regarding `COc1cnc2c(-c3cc4c5c(cc(Cl)c4o3)O[C@@H](COC(=O)Nc3ccc(C)nc3)CO5)cc(C)cc2n1` [Example 7, (R)-(6-chloro-8-(2-methoxy-7-methylquinoxalin-5-yl)-2,3-dihydro-[1,4]dioxino[2,3-e]benzofuran-3-yl)methyl (6-methylpyridin-3-yl)carbamate], the IC50 turned out to be 1 nM. As for `COc1cnc2c(-c3cc4c5c(cc(Cl)c4o3)O[C@@H](COC(=O)Nc3ccnc(C)c3)CO5)cc(C)cc2n1` [Example 8, (R)-(6-chloro-8-(2-methoxy-7-methylquinoxalin-5-yl)-2,3-dihydro-[1,4]dioxino[2,3-e]benzofuran-3-yl)methyl (2-methylpyridin-4-yl)carbamate], the IC50 stood at 1.4 nM. On to `COc1ccc(NC(=O)OC[C@H]2COc3c(cc(Cl)c4oc(-c5cc(C)cc6nc(OC)cnc56)cc34)O2)cn1` [Example 9, (R)-(6-chloro-8-(2-methoxy-7-methylquinoxalin-5-yl)-2,3-dihydro-[1,4]dioxino[2,3-e]benzofuran-3-yl)methyl (6-methoxypyridin-3-yl)carbamate], for which the IC50 worked out at 1.8 nM. The value for `COc1cnc2c(-c3cc4c5c(cc(Cl)c4o3)O[C@@H](COC(=O)Nc3cccnc3)CO5)cc(C)cc2n1` [Example 10, (R)-(6-chloro-8-(2-methoxy-7-methylquinoxalin-5-yl)-2,3-dihydro-[1,4]dioxino[2,3-e]benzofuran-3-yl)methyl pyridin-3-ylcarbamate] was 8.5 nM; that for `COc1cnc2c(-c3cc4c5c(ccc4o3)O[C@@H](COC(=O)Nc3ccc(C)nc3)CO5)cc(C)cc2n1` [Example 11, (R)-(8-(2-methoxy-7-methylquinoxalin-5-yl)-2,3-dihydro-[1,4]dioxino[2,3-e]benzofuran-3-yl)methyl (6-methylpyridin-3-yl)carbamate] was 1.3 nM; that for `COc1cnc2c(-c3cc4c5c(ccc4o3)O[C@@H](COC(=O)Nc3ccnc(C)c3)CO5)cc(C)cc2n1` [Example 12, (R)-(8-(2-methoxy-7-methylquinoxalin-5-yl)-2,3-dihydro-[1,4]dioxino[2,3-e]benzofuran-3-yl)methyl (2-methylpyridin-4-yl)carbamate] was 3.8 nM. `COc1ccc(NC(=O)OC[C@H]2COc3c(ccc4oc(-c5cc(C)cc6nc(OC)cnc56)cc34)O2)cn1` [Example 13, (R)-(8-(2-methoxy-7-methylquinoxalin-5-yl)-2,3-dihydro-[1,4]dioxino[2,3-e]benzofuran-3-yl)methyl (6-methoxypyridin-3-yl)carbamate]: the IC50 is 1.2 nM. With `COc1cnc2c(-c3cc4c5c(cc(C)c4o3)O[C@@H](COC(=O)Nc3ccc(C)nc3)CO5)cc(C)cc2n1` [Example 14, (R)-(8-(2-methoxy-7-methylquinoxalin-5-yl)-6-methyl-2,3-dihydro-[1,4]dioxino[2,3-e]benzofuran-3-yl)methyl (6-methylpyridin-3-yl)carbamate], the IC50 turned out to be 2.9 nM. For `COc1cnc2c(-c3cc4c5c(cc(C)c4o3)O[C@@H](COC(=O)Nc3ccnc(C)c3)CO5)cc(C)cc2n1` [Example 15, (R)-(8-(2-methoxy-7-methylquinoxalin-5-yl)-6-methyl-2,3-dihydro-[1,4]dioxino[2,3-e]benzofuran-3-yl)methyl (2-methylpyridin-4-yl)carbamate], the IC50 came to 3.2 nM.

In general, IC50 refers to the point on the concentration scale where inhibition reaches its midpoint.
